According to patent publication US20040077639A1, “Methods for the treatment of respiratory diseases and conditions using a selective iNOS inhibitor” (priority 2002, published 2004):

Legend:
[1] = system: iNOS activity in human primary airway epithelial cells; assay: Nitrite in media of cytokine-treated human primary airway epithelial cells; format: cell-based; conditions: 50 ng/ml IL-1β, TNF-α and IFN-γ (cytomix), 24 h; FIG. 1; read-out: IC50 for inhibition of the increase in nitrite in the media
Description: Human primary airway epithelial cell cultures: Human primary airway epithelial cells were cultured as described previously (see Donnelly,L. E. and Barnes, P. J. Am J Respir Cell Mol.Biol 24:295-303 (2000)), and the amount of nitrite, the stable oxidation product of NO, in the cell culture media was measured using a modification of the spectrofluorometric method of Misko et al., Anal. Biochem. […] (1993).
The protein was evenly distributed throughout the cytoplasm in basal cells but clearly located beneath the cilia in the columnar, ciliated cells. Treatment of airway epithelial cells with 50 ng/ml of IL-1β, TNF-α and IFN-γ (cytomix) for 24 h caused an induction of iNOS protein and an increase in the accumulation of nitrite in cell culture media from 2.20±0.2 μM in the absence of cytomix, to 3.5±0.4 μM in the presence of cytomix.
Media was harvested and measured for nitrite content (FIG. 1). Cellular proteins were resolved on 3-8% tris-acetate polyacrylamide gels and immunoblotted for iNOS protein (FIG. 2).
Rather, as expected, it appears to result from inhibition of enzymatic activity.

[2] = system: iNOS protein expression in human primary airway epithelial cells; assay: Western blotting of iNOS from cultured epithelial cells; format: cell-based; conditions: cytomix-treated cells; FIG. 2
Description: Westem blotting of INOS from cultured epithelial cells: Following incubation with the cytokine mixture alone or with various concentrations of L-NIL, epithelial cells were lysed in 50 mM Tris/HCl, pH 7.4, containing 0.25 mM ethylene diaminotetraacetic acid, 0.5 mM phenylmethylsulfonyl fluoride, 5 μg/ml antipain, 5 μg/ml leupeptin and 5 μg/ml benzaminidine. The protein concentration was determined using the BioRad protein assay kit according to the manufacturer's instructions. Cell proteins were solubilized in sodium dodecyl sulfate polyacrylamide gel electrophoresis sample buffer ([…] Tris/HCl, pH 6.8, containing 10% v/v glycerol, 1% w/v SDS, 1% w/v β-mercaptoethanol, and 0.01% w/v bromophenol blue). The proteins (15 μg per lane) were resolved by electrophoresis in 3-8% (w/v) Tris-acetate SDS-polyacrylamide gels and transferred to Hybond-Enhanced Chemi-luminescence (ECL) nitro-cellulose membranes. Equal protein loading was determined by staining the blot with 0.1% (w/v) Ponceau S in 5% (v/v) acetic acid. The nitro-cellulose was then blocked overnight at 4° C. in 0.5M Tris-HCl,pH 7.4, containing 3% (w/v) normal goat serum, 1% (w/v) bovine serum albumin and 0.05% (v/v) Tween-20. […]
Media was harvested and measured for nitrite content (FIG. 1). […]

IC50 [1]: ~5.7 µM
Structure (SMILES): CC(=N)NCCCC[C@H](N)C(=O)O [L-NIL]
effect on iNOS expression as detected by immunoblotting [2]: did not affect
